Changes are numbered by the printed parent chain. Like-named read-outs stand apart in the source and are kept apart here.
Tests used:
SOX9 [1] = target: T1, SOX9 (Rattus norvegicus, UniProt F1LYL9); test: Q-PCR of SOX9 and SOX9 target gene expression in primary rat astrocyte cultures; format: cell-based; conditions: 10 μM
T1 construct: endogenous in cells; host or cells: primary rat astrocyte cultures
T1 sequence (F1LYL9 1-507): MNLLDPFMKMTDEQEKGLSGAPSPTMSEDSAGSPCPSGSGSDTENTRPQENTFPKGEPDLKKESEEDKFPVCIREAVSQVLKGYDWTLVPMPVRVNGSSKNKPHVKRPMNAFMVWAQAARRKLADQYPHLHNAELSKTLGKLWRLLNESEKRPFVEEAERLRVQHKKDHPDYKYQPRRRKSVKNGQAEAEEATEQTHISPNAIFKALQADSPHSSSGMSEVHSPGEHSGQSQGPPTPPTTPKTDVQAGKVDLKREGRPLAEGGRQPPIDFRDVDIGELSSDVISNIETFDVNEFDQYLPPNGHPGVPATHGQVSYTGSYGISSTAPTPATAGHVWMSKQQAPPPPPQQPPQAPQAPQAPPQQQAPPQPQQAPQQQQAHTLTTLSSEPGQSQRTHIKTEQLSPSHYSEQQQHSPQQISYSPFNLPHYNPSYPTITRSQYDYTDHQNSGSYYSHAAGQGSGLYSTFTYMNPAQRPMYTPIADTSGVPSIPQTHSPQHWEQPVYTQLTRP
Protocol: FIG. 2 graphically depicts results from treatment of two-week old rat astrocytes for 48 h (hours) with 10 μM SOX-DIMER (white), which show decreased SOX9 target gene expression compared to control (FLAG-Tat) peptide-treated cultures (black) (* indicates statistical significance P<0.05, two-tailed t-test; N=4);
Primary astrocyte cultures were treated with 10 μM SOX-DIMER peptide or of a control peptide (FLAG-Tat) for 48 h and then harvested RNA.
(§1) To identify small molecule inhibitors of SOX9 design efforts focused on the septameric peptide sequence (IREAVSQ, SEQ ID NO:1, underlined in the SOX-DIMER sequence given above) identified as a subregion of the known SOX9 dimerization domain with a high likelihood of direct participation in dimerization. This prediction was based on the position of the human mutation that causes the skeletal but not the sex reversal abnormalities of campomelic dyskplasia (Bernard et al 2003). A computational screen of ˜12 million compounds was performed to identify small molecules predicted to interfere with SOX9 dimerization, based on the physical-chemical properties of the SOX-DIMER peptide motif.

[2] = system: CSPG levels in the injured rat spinal cord; test: CSPG levels in injured rat spinal cord, biotinylated-WFA staining; format: in vivo; conditions: T9 200 kdyne SCI, intrathecal pump approximately 400 μg/Kg/day for 4 weeks, sections caudal to the lesion, vs vehicle
Protocol: To assess the effect of compound 1 on CSPG levels in the injured rat spinal cord, compound 1 or vehicle was delivered by an intrathecal pump delivering compound 1 at approximately 400 μg/Kg/day for 4 weeks starting immediately after a 200 kdyne T9 thoracic SCI. This dose was predicted to result in a concentration of compound 1 of between 10 and 30 μM based on an estimated cerebrospinal fluid volume of 580 μL (Murtha et al 2014) and a turnover rate of about 12-13 times per day (Simon et al 1995).

spinal cord injured rats = test: Locomotor recovery (hind limb function, open field test, BBB score) after thoracic SCI; format: in vivo; conditions: rat, T9 200 kdyne SCI, intrathecal approximately 400 μg/Kg/day
Protocol: In a longer-term study, compound 1 (approximately 400 μg/Kg/day) or vehicle was again delivered intrathecally to rats immediately after a T9, 200 kdyne SCI, and hind limb function was evaluated twice per week by an observer blinded to treatment group in an open field test for […] (FIG. 5). […] By day 56 the compound 1-treated rats achieved average locomotor BBB scores (Basso et al 1995) of 12.4±0.8 indicating consistent weight supported plantar placement and occasional forelimb/hind limb coordination while the vehicle-treated rats only achieved an average locomotor BBB score of 10.4±0.7, indicating occasional weight supported planter placement with no forelimb/hind limb coordination.

[3] = Spinal cord concentration after intravenous injection, UPLC coupled to mass spectrometry; format: in vivo, rat
Protocol: Compound 1 was delivered intrathecally as it was initially unknown the inhibitory compound could cross the blood brain barrier. To resolve this issue a subsequent study was carried out in which control and T9 spinal cord injured rats were given intravenous injections of compound 1 (1 or 10 nmol/g) or of vehicle at 24 and 48 h after SCI and sacrificed 24 h later. […] Compound 1 was even found in the spinal cords after dosing uninjured controls (FIG. 6).
Using a standard curve, the concentration of compound 1 in the injured spinal cord after a 10 nmol/g iv injection was determined to be 2.7 μM at the lesion epicenter, 1.9 μM in the lumbar cord and 1.02 μM in the uninjured cord.

SOX9 [4] = target: T2, SOX9 (Mus musculus, UniProt Q04887); test: SOX9 target gene expression in chondrogenic cell line ATDC5; format: cell-based; parameters: in the chondrogenic cell line ATDC5; endogenous in cells; host or cells: ATDC5 chondrogenic cell line
T2 sequence (Q04887 1-507): T1 sequence (F1LYL9 1-507) with S314T, P368Q, Q369P, N427S, T432P, T441A
Excerpt: as §1
Some of the inhibitor compounds were also tested on ATDC5 cells for their effect on SOX9 target gene expression by q-PCR (aggrecan data is shown in FIG. 11) and on LX-2 (human hepatocyte (stellate cells) cells for collagen gene expression (associated with liver fibrosis), as shown in FIG. 12.

SOX9 [5] = target: T2, SOX9; test: SOX9 target gene expression in primary mouse astrocyte cultures; format: cell-based; parameters: primary mouse and rat astrocyte cultures; endogenous in cells; host or cells: primary mouse astrocyte cultures; conditions: primary mouse astrocyte cultures (FIG. 3)

SOX9 target gene expression (SOX9 [1]; primary rat astrocyte cultures, 48 h vs vehicle (FIG. 3))	reduction of spinal cord concentrations after 1 nmol/g relative to 10 nmol/g ([3]; rat, 1 nmol/g iv injections)	SOX9 target gene expression (SOX9 [4])	SOX9 target gene expression (SOX9 [5])	Compound	reduction in CSPG levels (WFA staining) [2]	average locomotor BBB score (spinal cord injured rats; day 56)	hind limb function in open field test (spinal cord injured rats; vs vehicle)	concentration at 24 h after the last injection ([3]; lesion epicenter, T9 spinal cord injured rat, 10 nmol/g iv at 24 and 48 h after SCI, sacrificed 24 h later, read-out: concentration in spinal cord at the lesion epicenter)	concentration at 24 h after the last injection ([3]; lumbar enlargement (distal to the lesion), T9 spinal cord injured rat, 10 nmol/g iv at 24 and 48 h after SCI, sacrificed 24 h later, read-out: concentration in the lumbar cord)	penetration of the blood-spinal cord barrier ([3]; rat, 10 nmol/g iv, control or spinal cord injured)	concentration at 24 h after the last injection ([3]; uninjured spinal cord, uninjured control rat, 10 nmol/g iv, read-out: concentration in the uninjured cord)	expression of SOX9 and SOX9 target genes (XT-1, XT-2, Hapln1, Collagen 2a1, GFAP, aggrecan, brevican) (SOX9 [1]; 48 h, primary astrocyte cultures, vs control peptide FLAG-Tat, Q-PCR (FIG. 2))
decrease SOX9 target gene expression	10 fold	decrease SOX9 target gene expression	decrease SOX9 target gene expression	COc1ccc(C(=O)N2CCN(C)CC2)cc1NC(=O)COc1cc(C)ccc1C(C)C [compound 1]	3 fold	12.4±0.8	statistically significant improvement	2700 nM	1900 nM	can penetrate the blood-spinal cord barrier	1020 nM	–
–	–	–	–	SOX-DIMER: fusion between the SOX9 dimerization motif (DKFPVCIREAVSQVLKGYDW, SEQ ID NO. 2) and the protein transduction domain of the HIV-1 Tat protein (DKFPVCIREAVSQVLKGYDWKYGRKKRRQRRR)	–	–	–	–	–	–	–	significantly reducing the expression of SOX9 and SOX9 target genes
